Biological target: T1, BCL6 (Homo sapiens, UniProt P41182)
T1 construct: endogenous in cells; host or cells: T47D breast cancer epithelial cells
Experiment: Immunofluorescence protocol for high content imaging of BCL6 (degradation) in T47D cells, 3 days compound treatment
Type: cell-based
Conditions: for Dmax: T47D, read-out: Mean Dmax (%)** category; for DC50: read-out: Mean DC50 (nM)* category
In short: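 T47D cells in RPMI1640-10% FBS were treated with an 11-point 3-fold dilution series (final top 0.1 or 1 μM) for 3 days at 37° C. After PFA fixation and Triton permeabilization, cells were immunostained with rabbit anti-BCL6 (1:300, overnight 4° C), Alexa-488 secondary, CellMask-647 and Hoechst, then imaged at 10×, 4 fields/well.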

SMILES	Dmax	DC50
CNC(=O)COc1cc2cc(Nc3nc(N4CCN(CC5CC6(CCN(c7ccc8c(c7F)CN(C7CCC(=O)NC7=O)C8=O)CC6)C5)CC4)ncc3Cl)ccc2n(C(C)C)c1=O (centres unmarked) [Compound 319, 2-{[6-({5-chloro-2-[4-({7-[2-(2,6-dioxopiperidin-3-yl)-4-fluoro-1-oxo-2,3-dihydro-1H-isoindol-5-yl]-7-azaspiro[3.5]nonan-2-yl}methyl)piperazin-1-yl]pyrimidin-4-yl}amino)-2-oxo-1-(propan-2-yl)-1,2-dihydroquinolin-3-yl]oxy}-N-methylacetamide]	50 to 70%	< 10 nM
CNC(=O)COc1cc2cc(Nc3nc(N4CCCCC4)ncc3Cl)ccc2n(CCOc2ccc3c(c2)C(=O)N(C2CCC(=O)N(C)C2=O)C3=O)c1=O (centres unmarked) [Compound 320, 2-[(6-{[5-chloro-2-(piperidin-1-yl)pyrimidin-4-yl]amino}-1-(2-{[2-(1-methyl-2,6-dioxopiperidin-3-yl)-1,3-dioxo-2,3-dihydro-1H-isoindol-5-yl]oxy}ethyl)-2-oxo-1,2-dihydroquinolin-3-yl)oxy]-N-methylacetamide]		< 10 nM
CNC(=O)COc1cc2cc(Nc3cc(N4CCC(CN5CCC6(CC5)CN(c5ccc7c(c5)CN(C5CCC(=O)NC5=O)C7=O)C6)CC4)ncc3Cl)ccc2n(C(C)C)c1=O (centres unmarked) [Compound 321, 2-{[6-({5-chloro-2-[4-({2-[2-(2,6-dioxopiperidin-3-yl)-1-oxo-2,3-dihydro-1H-isoindol-5-yl]-2,7-diazaspiro[3.5]nonan-7-yl}methyl)piperidin-1-yl]pyridin-4-yl}amino)-2-oxo-1-(propan-2-yl)-1,2-dihydroquinolin-3-yl]oxy}-N-methylacetamide]	50 to 70%	< 10 nM
CNC(=O)COc1cc2cc(Nc3nc(N4CCC(CN5CCN(c6ccc7c(c6F)CN(C6CCC(=O)NC6=O)C7=O)CC5)CC4)ncc3Cl)ccc2n(C(C)C)c1=O (centres unmarked) [Compound 322, 2-{[6-({5-chloro-2-[4-({4-[2-(2,6-dioxopiperidin-3-yl)-4-fluoro-1-oxo-2,3-dihydro-1H-isoindol-5-yl]piperazin-1-yl}methyl)piperidin-1-yl]pyrimidin-4-yl}amino)-2-oxo-1-(propan-2-yl)-1,2-dihydroquinolin-3-yl]oxy}-N-methylacetamide]	50 to 70%	< 10 nM
CNC(=O)COc1cc2cc(Nc3nc(N4CCC(O[C@H]5C[C@H](N6CC=C(c7ccc8c(c7)CN(C7CCC(=O)NC7=O)C8=O)CC6)C5)CC4)ncc3Cl)ccc2n(C(C)C)c1=O (some centres unmarked) [Compound 323, 2-({6-[(5-chloro-2-{4-[(1r,3r)-3-{4-[2-(2,6-dioxopiperidin-3-yl)-1-oxo-2,3-dihydro-1H-isoindol-5-yl]-1,2,3,6-tetrahydropyridin-1-yl}cyclobutoxy]piperidin-1-yl}pyrimidin-4-yl)amino]-2-oxo-1-(propan-2-yl)-1,2-dihydroquinolin-3-yl}oxy)-N-methylacetamide]	50 to 70%	< 10 nM
CNC(=O)COc1cc2cc(Nc3nc(N4CCC(OC5CCC6(CC5)CN(c5c(F)cc7c(c5F)CN(C5CCC(=O)NC5=O)C7=O)C6)CC4)ncc3Cl)ccc2n(C(C)C)c1=O (centres unmarked) [Compound 324, 2-{[6-({5-chloro-2-[4-({2-[2-(2,6-dioxopiperidin-3-yl)-4,6-difluoro-1-oxo-2,3-dihydro-1H-isoindol-5-yl]-2-azaspiro[3.5]nonan-7-yl}oxy)piperidin-1-yl]pyrimidin-4-yl}amino)-2-oxo-1-(propan-2-yl)-1,2-dihydroquinolin-3-yl]oxy}-N-methylacetamide]	50 to 70%	< 10 nM
CNC(=O)COc1cc2cc(Nc3nc(N4CCC(CN5CCC6(CN(c7cccc8c7C(=O)N(C7CCC(=O)NC7=O)C8=O)C6)C(F)C5)CC4)ncc3Cl)ccc2n(C(C)C)c1=O (centres unmarked) [Compound 325, 2-{[6-({5-chloro-2-[4-({2-[2-(2,6-dioxopiperidin-3-yl)-1,3-dioxo-2,3-dihydro-1H-isoindol-4-yl]-5-fluoro-2,7-diazaspiro[3.5]nonan-7-yl}methyl)piperidin-1-yl]pyrimidin-4-yl}amino)-2-oxo-1-(propan-2-yl)-1,2-dihydroquinolin-3-yl]oxy}-N-methylacetamide]	50 to 70%	< 10 nM
CNC(=O)COc1cc2cc(Nc3nc(N4CCC(CN5CCC6(CN(c7cccc8c7CN(C7CCC(=O)NC7=O)C8=O)C6)C(F)C5)CC4)ncc3Cl)ccc2n(C(C)C)c1=O (centres unmarked) [Compound 326, 2-{[6-({5-chloro-2-[4-({2-[2-(2,6-dioxopiperidin-3-yl)-1-oxo-2,3-dihydro-1H-isoindol-4-yl]-5-fluoro-2,7-diazaspiro[3.5]nonan-7-yl}methyl)piperidin-1-yl]pyrimidin-4-yl}amino)-2-oxo-1-(propan-2-yl)-1,2-dihydroquinolin-3-yl]oxy}-N-methylacetamide]	≥ 70%	< 10 nM
CNC(=O)COc1cc2cc(Nc3nc(N4CCC(C(C)(C)N5CCC6(CC5)CN(c5c(OC)ccc7c5CN(C5CCC(=O)NC5=O)C7=O)C6)CC4)ncc3Cl)ccc2n(C(C)C)c1=O (centres unmarked) [Compound 327, 2-{[6-({5-chloro-2-[4-(2-{2-[2-(2,6-dioxopiperidin-3-yl)-5-methoxy-1-oxo-2,3-dihydro-1H-isoindol-4-yl]-2,7-diazaspiro[3.5]nonan-7-yl}propan-2-yl)piperidin-1-yl]pyrimidin-4-yl}amino)-2-oxo-1-(propan-2-yl)-1,2-dihydroquinolin-3-yl]oxy}-N-methylacetamide]	≥ 70%	< 10 nM
CNC(=O)COc1cc2cc(Nc3nc(N4CCC(C(C)(C)N5CCC6(CC5)CN(c5cc(OC)cc7c5CN(C5CCC(=O)NC5=O)C7=O)C6)CC4)ncc3Cl)ccc2n(C(C)C)c1=O (centres unmarked) [Compound 328, 2-{[6-({5-chloro-2-[4-(2-{2-[2-(2,6-dioxopiperidin-3-yl)-6-methoxy-1-oxo-2,3-dihydro-1H-isoindol-4-yl]-2,7-diazaspiro[3.5]nonan-7-yl}propan-2-yl)piperidin-1-yl]pyrimidin-4-yl}amino)-2-oxo-1-(propan-2-yl)-1,2-dihydroquinolin-3-yl]oxy}-N-methylacetamide]	50 to 70%	< 10 nM
CNC(=O)COc1cc2cc(Nc3nc(N4CCC(O[C@H]5C[C@H](N6CCC(c7cc8c(cc7Cl)C(=O)N(C7CCC(=O)NC7=O)C8)CC6)C5)CC4)ncc3Cl)ccc2n(C(C)C)c1=O (some centres unmarked) [Compound 329, 2-({6-[(5-chloro-2-{4-[(1r,3r)-3-{4-[6-chloro-2-(2,6-dioxopiperidin-3-yl)-1-oxo-2,3-dihydro-1H-isoindol-5-yl]piperidin-1-yl}cyclobutoxy]piperidin-1-yl}pyrimidin-4-yl)amino]-2-oxo-1-(propan-2-yl)-1,2-dihydroquinolin-3-yl}oxy)-N-methylacetamide]	50 to 70%	< 10 nM
CNC(=O)COc1cc2cc(Nc3nc(N4CCC(O[C@H]5C[C@H](N6CC7(CCN7c7ccc8c(c7)C(=O)N(C7CCC(=O)NC7=O)C8)C6)C5)CC4)ncc3Cl)ccc2n(C(C)C)c1=O (some centres unmarked) [Compound 330, 2-({6-[(5-chloro-2-{4-[(1r,3r)-3-{1-[2-(2,6-dioxopiperidin-3-yl)-3-oxo-2,3-dihydro-1H-isoindol-5-yl]-1,6-diazaspiro [3.3]heptan-6-yl}cyclobutoxy]piperidin-1-yl}pyrimidin-4-yl)amino]-2-oxo-1-(propan-2-yl)-1,2-dihydroquinolin-3-yl}oxy)-N-methylacetamide]	< 50%	10 to 50 nM

— patent publication US11986532B2 (Arvinas Operations, Inc., priority 2021, dated 2024)
